5 compounds from US20240132449A1, “HETEROCYCLIC COMPOUNDS AND METHODS OF USE THEREOF” (1cBio, Inc., priority 2022, published 2024) can be followed below.

As usually defined, the pIC50 is −log10 of the IC50, conventionally taken in molar units.

The target in one test is recombinant human PARP2 (Homo sapiens, UniProt Q9UGN5). The experiment in a line: PARP2 fluorescence polarization binding assay. The conditions noted are these: for pIC50: binding IC50, GST-tagged PARP2 20 nM, PARPi-FL 3 nM; for inhibition at 10 µM: read-out: PARP2 % inh at 10 μM. The method, boiled down: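 GST-tagged PARP2, added at 40 nM in 50 mM Tris pH 8.0, 0.001% Triton X-100, 10 mM MgCl2, 150 mM NaCl, was preincubated 30 min at RT with compound (10-point 3-fold series or single concentration). PARPi-FL probe was then added at 6 nM for 4 h. IC50 was fitted from fluorescence polarization (ex 480/em 535 nm) with floating top and bottom.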
Sequence of recombinant human PARP2 (Q9UGN5 whole entry): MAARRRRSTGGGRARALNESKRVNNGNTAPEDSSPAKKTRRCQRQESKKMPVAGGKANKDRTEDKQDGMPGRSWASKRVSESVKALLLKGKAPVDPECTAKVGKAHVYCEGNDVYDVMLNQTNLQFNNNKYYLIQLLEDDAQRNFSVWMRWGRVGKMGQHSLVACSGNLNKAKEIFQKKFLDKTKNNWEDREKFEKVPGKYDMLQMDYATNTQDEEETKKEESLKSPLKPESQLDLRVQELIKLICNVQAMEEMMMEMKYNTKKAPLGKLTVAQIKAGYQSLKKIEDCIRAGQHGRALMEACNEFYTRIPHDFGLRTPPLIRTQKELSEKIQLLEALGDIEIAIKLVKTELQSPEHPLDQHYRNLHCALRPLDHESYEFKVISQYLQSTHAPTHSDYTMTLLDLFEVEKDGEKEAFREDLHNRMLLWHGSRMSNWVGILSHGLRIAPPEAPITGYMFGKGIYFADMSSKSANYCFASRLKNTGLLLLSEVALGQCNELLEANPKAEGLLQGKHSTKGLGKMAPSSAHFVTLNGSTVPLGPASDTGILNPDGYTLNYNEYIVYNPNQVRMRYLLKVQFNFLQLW

Test [1] concerns DLD-1 wild-type colorectal adenocarcinoma cells. Kind of test: Cell viability assay (Cell Titer-Glo), DLD-1 wild-type. In kind it is cell-based. The conditions noted are these: Homo sapiens, DLD-1, 168 h, 7 days incubation; for inhibition at 10 µM: read-out: DLD-1 wild-type % inh at 10 μM; for pIC50: 50 cells/well. The method, boiled down:
(§1)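 Isogenic DLD-1 wild-type (50 cells/well) and BRCA2(−/−) (200 cells/well) lines treated after overnight attachment, 7 days at 37 °C, 5% CO2. Ten-point dilutions (e.g. 1.5 nM–30 μM) or single dose; CellTiter-Glo luminescence; IC50 from four-parameter fit, plus % inhibition at 10 μM.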
(In ATP-based viability assays light output follows the ATP content of the culture.)

Test [2] deals with DLD-1 BRCA2(−/−) colorectal adenocarcinoma cells. The experiment in a line: Cell viability assay (Cell Titer-Glo), DLD-1 BRCA2(−/−). In kind it is cell-based. The following applies: Homo sapiens, DLD-1, 168 h; 7 days incubation, 200 cells/well. In outline: as §1
The target in a further test is PARP1 (Homo sapiens, UniProt P09874). The experiment in a line: PARP1 fluorescence polarization binding assay. The following applies: binding IC50, GST-tagged PARP1 20 nM, PARPi-FL 3 nM. In outline:
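Competitive FP binding: 20 nM GST-tagged PARP1 preincubated with compound 30 min at RT, then 3 nM PARPi-FL probe for 4 h at RT; buffer 50 mM Tris pH 8.0, 10 mM MgCl2, 150 mM NaCl. 10-point 3-fold dilutions; % inhibition from mP versus controls, IC50 by four-parameter fit, reported in ranges.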
Background: In fluorescence polarisation assays a small probe gives low polarisation when free and higher when bound to something large.

pIC50: −log10 of the molar value. Where a name gives a salt, the structure may show the parent alone. Some results are limits rather than exact numbers.

Sequence of PARP1 (P09874 whole entry): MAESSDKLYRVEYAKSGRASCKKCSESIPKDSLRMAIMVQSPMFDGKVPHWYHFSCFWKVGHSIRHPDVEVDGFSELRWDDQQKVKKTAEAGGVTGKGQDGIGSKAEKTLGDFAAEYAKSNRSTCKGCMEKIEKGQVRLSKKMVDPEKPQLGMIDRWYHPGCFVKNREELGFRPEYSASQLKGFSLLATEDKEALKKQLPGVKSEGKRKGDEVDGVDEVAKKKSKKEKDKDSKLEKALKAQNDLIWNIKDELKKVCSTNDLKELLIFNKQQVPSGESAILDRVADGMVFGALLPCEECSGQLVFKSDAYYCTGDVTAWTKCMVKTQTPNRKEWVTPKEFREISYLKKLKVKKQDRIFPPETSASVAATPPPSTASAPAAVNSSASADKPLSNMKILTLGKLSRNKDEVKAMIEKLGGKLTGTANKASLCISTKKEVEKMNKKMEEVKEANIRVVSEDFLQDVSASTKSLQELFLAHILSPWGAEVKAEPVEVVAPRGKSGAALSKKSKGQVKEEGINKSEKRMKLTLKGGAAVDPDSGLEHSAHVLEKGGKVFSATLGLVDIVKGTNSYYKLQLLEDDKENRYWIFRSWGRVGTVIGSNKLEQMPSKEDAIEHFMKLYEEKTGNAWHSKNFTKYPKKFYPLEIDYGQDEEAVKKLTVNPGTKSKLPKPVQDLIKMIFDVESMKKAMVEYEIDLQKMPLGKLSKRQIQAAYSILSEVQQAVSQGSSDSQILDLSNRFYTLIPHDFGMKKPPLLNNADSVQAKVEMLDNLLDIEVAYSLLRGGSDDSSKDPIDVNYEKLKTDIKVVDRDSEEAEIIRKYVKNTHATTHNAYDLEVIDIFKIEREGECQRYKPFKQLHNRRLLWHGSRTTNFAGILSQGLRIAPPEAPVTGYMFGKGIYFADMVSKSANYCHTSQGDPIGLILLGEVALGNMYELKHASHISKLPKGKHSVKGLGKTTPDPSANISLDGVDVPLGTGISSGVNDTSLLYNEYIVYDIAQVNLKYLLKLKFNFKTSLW

Consider `CCn1c(=O)[nH]c2cc(CN3CCN(c4ccc(C(=O)NC)nc4C)CC3)sc2c1=O` [Compound 188, 5-(4-((3-ethyl-2,4-dioxo-1,2,3,4-tetrahydrothieno[3,2-d]pyrimidin-6-yl)methyl)piperazin-1-yl)-N,6-dimethylpicolinamide], for which the negative logarithm of the IC50 (pIC50) on recombinant human PARP2 was < 5.52; in test [1], < 5.52; in test [2] it was > 6.52; at PARP1, > 7.00. Further, the inhibition at 10 µM on recombinant human PARP2 was 33 to 67%; in test [1] it was < 33%.
For the compound `CCn1c(=O)[nH]c2cc(CN3CCN(c4ccc(C(=O)NC)nc4C)CC3)ccc2c1=O` [Compound 16, 5-{4-[(3-ethyl-2,4-dioxo-1H-quinazolin-7-yl)methyl]piperazin-1-yl}-N,6-dimethylpyridine-2-carboxamide], the pIC50 at recombinant human PARP2 is < 5.52; in test [1], < 5.52; in test [2], > 6.52; on PARP1, > 7.00. In addition, the results for the inhibition at 10 µM (on recombinant human PARP2; in test [1]) were 33 to 67% and < 33%, respectively.
As for `CCn1c(=O)[nH]c2cc(CN3CCN(c4ccc(C(=O)NC)nc4)CC3)ccc2c1=O` [Compound 3, 5-(4-((3-ethyl-2,4-dioxo-1,2,3,4-tetrahydroquinazolin-7-yl)methyl)piperazin-1-yl)-N-methylpicolinamide formate], the negative-log IC50 (pIC50) is < 5.52 at recombinant human PARP2, < 5.52 in test [1], 5.52 to 6.52 in test [2] and > 7.00 at PARP1. Further, the results for the inhibition at 10 µM (on recombinant human PARP2; in test [1]) were 33 to 67% and < 33%, respectively.
On to `CCN1Cc2ccc(CN3CCN(c4ccc(C(=O)NC)nc4)CC3)cc2NC1=O` [Compound 196, 5-(4-((3-ethyl-2-oxo-1,2,3,4-tetrahydroquinazolin-7-yl)methyl)piperazin-1-yl)-N-methylpicolinamide formate], for which the negative logarithm of the IC50 (pIC50) on recombinant human PARP2 is < 5.52; in test [1], < 5.52; in test [2], 5.52 to 6.52; on PARP1, > 7.00. Moreover, the inhibition at 10 µM on recombinant human PARP2 is 33 to 67%; in test [1], < 33%.
Take `CCn1c(=O)[nH]c2cc(CN3CCN(c4ccc(C(=O)NC)nc4C)CC3)ccc2c1=S` [Compound 51, 5-(4-((3-ethyl-2-oxo-4-thioxo-1,2,3,4-tetrahydroquinazolin-7-yl)methyl)piperazin-1-yl)-N,6-dimethylpicolinamide formate]: the pIC50 on recombinant human PARP2 was < 5.52; in test [1] it was < 5.52; in test [2] it was > 6.52; on PARP1 it was > 7.00. Also, the inhibition at 10 µM was 33 to 67% at recombinant human PARP2 and > 67% in test [1].
